Counter-ions that a name gives are not always drawn.

This assay deals with T1, human neutrophil elastase (Homo sapiens, UniProt P08246).
T1 sequence (P08246 30-267): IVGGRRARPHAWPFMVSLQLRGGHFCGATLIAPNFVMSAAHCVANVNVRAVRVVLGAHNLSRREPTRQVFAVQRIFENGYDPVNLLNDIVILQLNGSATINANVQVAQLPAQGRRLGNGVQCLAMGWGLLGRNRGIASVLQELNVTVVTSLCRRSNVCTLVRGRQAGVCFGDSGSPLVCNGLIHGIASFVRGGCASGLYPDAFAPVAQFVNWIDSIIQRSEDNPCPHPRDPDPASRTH
Nature of the assay: In vitro assay of human neutrophil elastase (HNE). Format: biochemical. As to conditions: 118 nM purified human neutrophil elastase, pH 8.6, 15 min incubation at 30° C., MeO-succinyl-alanyl-alanyl-prolyl-valyl-p-nitroanilide substrate; read-out: HNE IC50. On the procedure: In Vitro Assays of Human Neutrophil Elastase
118 nM purified human neutrophil elastase
Suitable concentrations of compound under test diluted with water from a 10 mM stock solution in dimethylsulphoxide. Values above are final concentrations after the addition of substrate solution (see below).
The mixture above is incubated for fifteen minutes at 30° C. at which time the remaining elastase activity is measured for 10 minutes in a BioTek 340i plate-reader, after the addition of 0.6 mM MeO-succinyl-alanyl-alanyl-prolyl-valyl-p-nitroanilide. The rate of increase in absorbance at 405 nm is proportional to elastase activity. Enzyme activity is plotted against concentration of inhibitor and an IC50 determined using curve fitting software.
1. The compounds were tested in the in vitro elastase test described earlier in the description.
As to `C=CC[C@H]1C(=O)N(S(=O)(=O)c2ccc3ccccc3c2)[C@H]2CCN(C(=O)OCc3ccccc3)[C@H]12` (relative stereo) [Example 1, rel-(3aS,6R,6aR)-6-Allyl-4-(naphthalene-2-sulfonyl)-5-oxo-hexahydro-pyrrolo[3,2-b]pyrrole-1-carboxylic acid benzyl ester], the concentration for half-maximal inhibition (IC50) (commonly the point on the concentration scale where inhibition reaches its midpoint) stood at 36 nM.

For `CCC[C@H]1C(=O)N(S(=O)(=O)c2ccc3ccccc3c2)[C@H]2CCN(C(=O)CN3CCCCC3)[C@H]12` (relative stereo) [Example 3, rel-(3R,3aR,6aS)-1-(Naphthalene-2-sulfonyl)-4-(2-piperidin-1-yl-acetyl)-3-propyl-hexahydro-pyrrolo[3,2-b]pyrrol-2-one], the IC50 turned out to be 205 nM.

For the compound `CC[C@H]1C(=O)N(S(=O)(=O)c2ccc3ccccc3c2)[C@H]2CCN(C(=O)OCc3ccccc3)[C@H]12` (relative stereo) [Example 4, rel-(3aS,6R,6aR)-6-Ethyl-4-(naphthalene-2-sulfonyl)-5-oxo-hexahydro-pyrrolo[3,2-b]pyrrole-1-carboxylic acid benzyl ester], the IC50 was 134 nM.

As to `CC[C@H]1C(=O)N(S(=O)(=O)c2ccc3ccccc3c2)[C@H]2CCN(C(=O)CCN3CCCCC3)[C@H]12` (relative stereo) [Example 5, rel-(3R,3aR,6aS)-3-Ethyl-1-(naphthalene-2-sulfonyl)-4-(3-piperidin-1-yl-propionyl)-hexahydro-pyrrolo[3,2-b]pyrrol-2-one hydrochloride], the IC50 is 205 nM.

On to `C=CC[C@H]1C(=O)N(S(C)(=O)=O)[C@H]2CCN(C(=O)OCc3ccccc3)[C@H]12` (relative stereo) [Example 6, rel-(3aS,6R,6aR)-6-Allyl-4-methanesulfonyl-5-oxo-hexahydro-pyrrolo[3,2-b]pyrrole-1-carboxylic acid benzyl ester], for which the half-inhibitory concentration (IC50) came to 70 nM.

Regarding `CCC[C@H]1C(=O)N(S(C)(=O)=O)[C@H]2CCN(S(=O)(=O)c3cn(C)cn3)[C@H]12` (relative stereo) [Example 7, rel-(3R,3aR,6aS)-1-Methanesulfonyl-4-(1-methyl-1H-imidazole-4-sulfonyl)-3-propyl-hexahydro-pyrrolo[3,2-b]pyrrol-2-one], the IC50 amounted to 134 nM.

With `CCC[C@H]1C(=O)N(S(C)(=O)=O)[C@H]2CCN(S(=O)(=O)CCCN3CCOCC3)[C@H]12` (relative stereo) [Example 8, rel-(3R,3aR,6aS)-1-Methanesulfonyl-4-(3-morpholin-4-yl-propane-1-sulfonyl)-3-propyl-hexahydro-pyrrolo[3,2-b]pyrrol-2-one], the IC50 came to 29 nM.

As to `CCC[C@H]1C(=O)N(S(C)(=O)=O)[C@H]2CCN(S(=O)(=O)CCCN3CCCCC3)[C@H]12` (relative stereo) [Example 9, rel-(3R,3aR,6aS)-1-Methanesulfonyl-4-(3-piperidin-1-yl-propane-1-sulfonyl)-3-propyl-hexahydro-pyrrolo[3,2-b]pyrrol-2-one], the IC50 was determined as 54 nM.

On to `CCC[C@H]1C(=O)N(S(C)(=O)=O)[C@H]2CCN(S(=O)(=O)CCCN3CCN(C)CC3)[C@H]12` (relative stereo) [Example 10, rel-(3R,3aR,6aS)-1-Methanesulfonyl-4-[3-(4-methyl-piperazin-1-yl)-propane-1-sulfonyl]3-propyl-hexahydro-pyrrolo[3,2-b]pyrrol-2-one dihydrochloride], for which the concentration for half-maximal inhibition (IC50) worked out at 39 nM.

Turning to `CCC[C@H]1C(=O)N(S(=O)(=O)c2ccc3ccccc3c2)[C@H]2CCN(S(=O)(=O)CCCCN3CCOCC3)[C@H]12` (relative stereo) [Example 11, rel-(3R,3aR,6aS)-4-(4-Morpholin-4-yl-butane-1-sulfonyl)-1-(naphthalene-2-sulfonyl)-3-propyl-hexahydro-pyrrolo[3,2-b]pyrrol-2-one], the IC50 is 111 nM.

Turning to `CCC[C@H]1C(=O)N(S(=O)(=O)c2ccc3ccccc3c2)[C@H]2CCN(S(=O)(=O)CCCN3CCOCC3)[C@H]12` (relative stereo) [Example 12, rel-(3R,3aR,6aS)-4-(3-Morpholin-4-yl-propane-1-sulfonyl)-1-(naphthalene-2-sulfonyl)-3-propyl-hexahydro-pyrrolo[3,2-b]pyrrol-2-one], the IC50 came to 60 nM.

For `CCC[C@H]1C(=O)N(S(=O)(=O)c2ccc3ccccc3c2)[C@H]2CCN(S(=O)(=O)CCCN3CCCCC3)[C@H]12` (relative stereo) [Example 13, rel-(3R,3aR,6aS)-1-(Naphthalene-2-sulfonyl)-(3-piperidin-1-yl-propane-1-sulfonyl)-3-propyl-hexahydro-pyrrolo[3,2-b]pyrrol-2-one], the IC50 was found to be 543 nM.

As for `CCC[C@H]1C(=O)N(S(=O)(=O)c2ccc3ccccc3c2)[C@H]2CCN(S(=O)(=O)CCCN3CCN(C)CC3)[C@H]12` (relative stereo) [Example 14, rel-(3R,3aR,6aS)-4-[3-(4-Methyl-piperazin-1-yl)-propane-1-sulfonyl-1-(naphthalene-2-sulfonyl)-3-propyl-hexahydro-pyrrolo[3,2-b]pyrrol-2-one], the IC50 worked out at 193 nM.

On to `C=CC[C@H]1C(=O)N(S(=O)(=O)c2cccc3ccccc23)[C@H]2CCN(C(=O)OCc3ccccc3)[C@H]12` (relative stereo) [Example 15, rel-(3sS,6R,6aR)-6-Allyl-4-(naphthalene-1-sulfonyl)-5-oxo-hexahydro-pyrrolo[3,2-b]pyrrole-1-carboxylic acid benzyl ester], for which the IC50 was found to be 10 nM.

With `CCC[C@H]1C(=O)N(S(=O)(=O)c2cccc3ccccc23)[C@H]2CCN(C(=O)C3CCN(C(=O)OC(C)(C)C)CC3)[C@H]12` (relative stereo) [Example 16, rel-(3aS,6R,6aR)-4-[4-(Naphthalene-1-sulfonyl)-5-oxo-6-propyl-hexahydro-pyrrolo[3,2-b]pyrrole-1-carbonyl-carbonyl]-piperidine-1-carboxylic acid tert-butyl], the IC50 was found to be 267 nM.

For `CCC[C@H]1C(=O)N(S(=O)(=O)c2cccc3ccccc23)[C@H]2CCN(C(=O)C3CCNCC3)[C@H]12` (relative stereo) [Example 17, trifluoroacetate], the IC50 came out at 342 nM.

Regarding `C=CC[C@H]1C(=O)N(S(=O)(=O)c2cccc3c(N(C)C)cccc23)[C@H]2CCN(C(=O)OCc3ccccc3)[C@H]12` (relative stereo) [Example 18, rel-(3aS,6R,6aR)-6-Allyl-4-(5-dimethylamino-naphthalene-1-sulfonyl)-5-oxo-hexahydro-pyrrolo[3,2-b]pyrrole-1-carboxylic acid benzyl ester], the half-maximal inhibitory concentration (IC50) was found to be 69 nM.

As for `C=CC[C@H]1C(=O)N(S(=O)(=O)c2ccc3c(c2)CCCC3)[C@H]2CCN(C(=O)OCc3ccccc3)[C@H]12` (relative stereo) [Example 20, rel-(3aS,6R,6aR)-6-Allyl-5-oxo-4-(5,6,7,8-tetrahydro-naphthalene-2-sulfonyl)-hexahydro-pyrrolo[3,2-b]pyrrole-1-carboxylic acid benzyl ester], the IC50 stood at 57 nM.

On to `C=CC[C@H]1C(=O)N(S(=O)(=O)Cc2ccccc2)[C@H]2CCN(C(=O)OCc3ccccc3)[C@H]12` (relative stereo) [Example 21, rel-3aS,6R,6aR)-6-Allyl-5-oxo-4-phenylmethanesylfonyl-hexahydro-pyrrolo[3,2-b]pyrrole-1-carboxylic acid benzyl ester], for which the IC50 is 491 nM.

Turning to `CCC[C@H]1C(=O)N(S(=O)(=O)c2ccc3ccccc3c2)[C@H]2CCN(S(C)(=O)=O)[C@H]12` (relative stereo) [Example 22, rel-(3R,3aR,6aS)-4-Methanesulfonyl-1-(naphthalene-2-sulfonyl)-3-propyl-hexahydro-pyrrolo[3,2-b]pyrrol-2-one], the IC50 amounted to 60 nM.

Regarding `CCC[C@H]1C(=O)N(S(=O)(=O)c2ccc3ccccc3c2)[C@H]2CCN(S(=O)(=O)Cc3cccc(-c4nnn[nH]4)c3)[C@H]12` (relative stereo) [Example 23, rel-(3R,3aR,6aS)-1(Naphthalene-2-sulfonyl)-3-propyl-4-[3-(1H-tetrazol-5-yl)-phenylmethanesulfonyl]-hexahydro-pyrrolo[3,2-b]pyrrole-2-one], the 50% inhibitory concentration (IC50) amounted to 75 nM.

As for `CCC[C@H]1C(=O)N(S(=O)(=O)c2ccc3ccccc3c2)[C@H]2CCN(C(C)=O)[C@H]12` (relative stereo) [Example 24, rel-(3R,3aR,6aS)-4-Acetyl-1-(naphthalene-2-sulfonyl)-3-propyl-hexahydro-pyrrolo[3,2-b][pyrrol-2-one], the IC50 amounted to 9 nM.

Consider `CCC[C@H]1C(=O)N(S(=O)(=O)c2ccc3ccccc3c2)[C@H]2CCN(C(=O)CCCN(C)C)[C@H]12` (relative stereo) [Example 25, rel-(3R,3aR,6aS)-4-(4-Dimethylamino-butyryl)-1-(naphthalene-2-sulfonyl)-3-propyl-hexahydro-pyrrolo[3,2-b]-pyrrol-2-one], for which the half-maximal inhibitory concentration (IC50) is 59 nM.

In the case of `CCC[C@H]1C(=O)N(S(C)(=O)=O)[C@H]2CCN(S(C)(=O)=O)[C@H]12` (relative stereo) [Example 26, rel-(3R,3aR,6aS)-1,4-Bis-methanesulfonyl-3-propyl-hexahydro-pyrrolo[3,2-b]pyrrol-2-one], the IC50 turned out to be 20 nM.

For the origin of these results see patent US6215002A, “Pyrrolopyrrolone derivatives as inhibitors of neutrophil elastase” (priority 1996, dated 2001).
